According to patent US7169568B2, “Method for screening molecules that exert a neurotrophic effect through activation of neurotrophin receptors” (New York University, priority 2000, dated 2007):
Where no end group is shown, it is not given here.

Tested on: TrkA receptors
Assay: TrkA receptor phosphorylation in primary E18 basal forebrain neurons (immunoprecipitation, anti-phosphotyrosine Western blot)
Format: cell-based, rat
Details: 10 nM, 2 hours
Procedure: Primary cultures of E18 basal forebrain neurons were prepared as described in the Materials and Methods section of Example 2 and treated with PACAP38 (10 nM) or NGF (10 ng/ml) for various times. Activation of TrkA receptors was assessed by immunoprecipitation and Western blotting with anti-phosphotyrosine antibody.
Immunoprecipitated and Immunoblotting. PC12 (615) cells were maintained in DMEM containing 10% FBS supplemented with 100 units/ml penicillin, 100 μg/ml streptomycin, and 2 mM glutamine plus 200 μg/ml G418. Cells were placed in serum free medium overnight before experiments. Cell lysates from PC12(615) cells, or basal forebrain cells were incubated in lysis buffer (1% Nonidet P-40) for 4 hrs to overnight at 4° C. with anti-pan-Trk polyclonal antibody followed by incubation with protein A-Sepharose beads. Equivalent amounts of protein were analyzed for each condition. The beads were washed five times with lysis buffer, and the immune complexes were boiled in SDS-sample buffer and loaded on SDS-PAGE gels for immunoblot analysis. The immunoreactive protein bands were detected by enhanced chemiluminescence (Amersham Pharmacia).
Basal Forebrain Cell Cultures. […] Cells were counted and plated on culture wells coated with 0.01 mg/ml poly-D-lysine overnight. […]

PACAP27: 27 amino acid form of PACAP (HSDGIFTDSYSRYRKQMAVKKYLAAVL; ends and bridges not checked; UniProt P18509 132-158, looked up, fragment)
Phosphorylation of TrkA receptors: gave rise to phosphorylated TrkA receptors
